From patent US11844823B2, “Beta-hairpin peptidomimetic with elastase inhibitory activity and aerosol dosage forms thereof” (POLYPHOR AG, priority 2016, dated 2023)
Non-standard residues stand in square brackets, D forms with d. Residues, ends and D or L forms follow the SMILES beside them. Gly(octyl) = CCCCCCCC[C@H](N)C(=O)O

Legend:
neutrophil elastase = assay: LPS/fMLP model of neutrophil activation in the rat, inhalation; neutrophil elastase activity in BAL supernatant; format: in vivo; conditions: for NE activity in BAL fluid: mean ± s.e.m., vehicle 0.25 ± 0.02, p < 0.0001
Procedure: The purpose of this study (conducted by Envigo CRS Limited, Alconbury, Huntingdon, United Kingdom) was to evaluate the effects of acetate salt of cyclo(-OctG-Glu-Thr-Ala-Ser-Ile-Pro-Pro-Gln-Lys-Tyr-^DPro-Pro-) administered by inhalation in a LPS/fMLP model of neutrophil activation in the rat.
Animals were challenged with aerosolized LPS (lipopolysaccharide, 1 mg/mL) for 30 min. Approximately 3 h following end of LPS challenge, animals were administered either vehicle or formulations as described above of acetate salt of cyclo(-OctG-Glu-Thr-Ala-Ser-Ile-Pro-Pro-Gln-Lys-Tyr-^DPro-Pro-) by inhalation (Groups 1-4) over a 30 min period using an eFlow® 30 XL electronic nebulizer (Pari Pharma GmbH, Starnberg, Germany; snout only exposure). All animals were dosed with fMLP (N-formyl-Met-Leu-Phe, 5 mg/kg) approximately 4 h post completion of the LPS challenge via the intratracheal route under transient gaseous anaesthesia at a dose volume of 1 mL/kg. Approximately 2 h after fMLP administration, animals were terminated and a bronchoalveolar lavage (BAL) was performed to evaluate inflammatory cell infiltrate and neutrophil elastase activity.
Following confirmation of death, the trachea of an animal was isolated, the tracheal cannula inserted and secured in place, and the airway was lavaged with 3 mL of phosphate buffered saline (PBS). The lavage was repeated twice and in total, three lots of 3 mL of PBS were used. The first lavage aliquot containing cells was placed into a 15 mL centrifuge tube on wet ice (Tube A). The BAL fluid pooled from the second two lavages was placed into a second tube (Tube B). Tube A and B were placed on wet ice until centrifuged. Centrifugation was performed at 800×g for 10 min at ca. 4° C. and the supernantant was harvested. Until neutrophil elastase analysis supernantant was stored at ca. […].
The two aliquots of BAL supernatant were analyzed for neutrophil elastase activity as follows: 120 μl of BAL supernatant from aliquot 1 was transferred to a 96 well plate (Corning #3650). In parallel, a dilution range from 1.6 to 0.025 mU/well of a commercial human neutrophil elastase (hNE, Serva #20927.01) was prepared. 120 μl of each hNE dilution were transferred in duplicate to the 96-well plate. To start the enzymatic reaction, 80 μl of a fluorescent peptide substrate (MeOSuc-Ala-Ala-Pro-Val-AMC) at a final concentration of 500 μM was added to each well and the plate was immediately placed in the victor2v fluorescent reader pre-warmed at 37° C. Fluorescence (λexc. 485 nm, λem. 535 nm) was recorded for 2 h at 37° C. Enzyme initial velocity (RFU/min) of all samples was calculated and converted in mU/mL hNE equivalent, using the linear regression equation obtained from the plot (RFU/min vs mU/mL of hNE dilution) of the human neutrophil elastase standard range. The assay was repeated using BAL supernatant from aliquot 2. The neutrophil elastase data reported is a mean of the neutrophil elastase activity from both aliquots.

[1] = tested on: patients with cystic fibrosis; assay: Phase-1b single ascending dose study in patients with cystic fibrosis, safety and tolerability; format: in vivo, human
From the text: In this randomised, double-blind, placebo-controlled, parallel-group (per dose level) dose-escalation study, the safety and tolerability of single ascending doses (SAD) of acetate salt of cyclo(-OctG-Glu-Thr-Ala-Ser-Ile-Pro-Pro-Gln-Lys-Tyr-^DPro-Pro-) administered by inhalation in patients with cystic fibrosis (CF) was investigated. Additionally, the pharmacokinetics of the drug following a single ascending dose in plasma and sputum as well as its pharmacodynamic effect on neutrophil elastase activity in sputum were evaluated.
In this study, conducted by Inamed GmbH, Gauting, Germany, 24 subjects with cystic fibrosis, who fulfilled all the inclusion criteria and in whom no exclusion criterion was present, were included and received randomised treatment. They were grouped into 3 dose groups of 8 subjects each. 6 subjects received the formulation described in Example 1 and dilutions thereof and 2 subjects received placebo (0.5% [w/w] aqueous sodium chloride solution adjusted to pH 5.5 with 1 M HCl pharmaceutical grade). The oral inhalation of the above formulation as well as the placebo occurred via the Pari eFlow® XL 30 nebulizer device (Pari Pharma GmbH, Starnberg, Germany). The dose levels and corresponding concentrations of cyclo(-OctG-Glu-Thr-Ala-Ser-Ile-Pro-Pro-Gln-Lys-Tyr-^DPro-Pro-) (active compound) are summarized in Table 14.
(§1) The volume of placebo nebulizer solution corresponded to that of the active compound at a particular dose level. The duration of inhalation was estimated to be between 7 and 20 min. Adverse events were tabulated and summarized according to the current version of Medical Dictionary for Regulatory Activities.

healthy subjects = assay: First-in-man study in healthy subjects, safety and tolerability of orally inhaled single doses; format: in vivo, human
From the text: In this randomised, double-blind, placebo-controlled, parallel-group (per dose level) dose-escalation study of inhaled single doses in 48 healthy subjects in six dose groups of eight subjects each, conducted by Inamed GmbH, Gauting, Germany, the controlled oral inhalation of the formulation described in Example 1 and dilutions thereof as well as the placebo (0.5% [w/w] aqueous sodium chloride solution adjusted to pH 5.5 with 1 M HCl pharmaceutical grade) occurred via the Pari eFlow® XL 30 nebulizer device (Pari Pharma GmbH, Starnberg, Germany). The dose levels and corresponding concentrations of cyclo(-OctG-Glu-Thr-Ala-Ser-Ile-Pro-Pro-Gln-Lys-Tyr-^DPro-Pro-) (active compound) are summarized in Table 10.
as §1, with “depended on the total volume of nebulizer solution and ranged” for “was estimated to be”, “several minutes” for “7”, “roughly one hour.” for “20 min.”

CCCCCCCC[C@@H]1NC(=O)[C@@H]2CCCN2C(=O)[C@H]2CCCN2C(=O)[C@H](Cc2ccc(O)cc2)NC(=O)[C@H](CCCCN)NC(=O)[C@H](CCC(N)=O)NC(=O)[C@@H]2CCCN2C(=O)[C@@H]2CCCN2C(=O)[C@H]([C@@H](C)CC)NC(=O)[C@H](CO)NC(=O)[C@H](C)NC(=O)[C@H]([C@@H](C)O)NC(=O)[C@H](CCC(=O)O)NC1=O [cyclo(-OctG-Glu-Thr-Ala-Ser-Ile-Pro-Pro-Gln-Lys-Tyr-^DPro-Pro-)] (cyclo([Gly(octyl)]ETASIPPQKY[dP]P))
NE activity in BAL fluid (neutrophil elastase; 0.3 mg/kg inhalation): 0.10 ± 0.01 mU/mL eq. | NE activity in BAL fluid (neutrophil elastase; 3 mg/kg inhalation): 0.11 ± 0.01 mU/mL eq. | NE activity in BAL fluid (neutrophil elastase; 30 mg/kg inhalation): 0.07 ± 0.01 mU/mL eq. | effect on neutrophil elastase activity in BAL fluid (neutrophil elastase; 0.3, 3 and 30 mg/kg by inhalation 3 h post LPS, 1 h prior to fMLP, BAL 6 h post LPS): significantly inhibited | clinical signs between dosing and study termination (neutrophil elastase; rat, inhalation 0.3-30 mg/kg): No test item related clinical signs | death, serious and other significant adverse events ([1]; CF patients, single inhaled doses 80, 160, 320 mg): No death, no serious adverse events (AE) and no other significant AE | TEAEs rated as severe ([1]; human, in vivo): None | causal relationship of TEAEs to active compound ([1]; human, in vivo): not related | total number of AEs (all TEAEs) ([1]; human, in vivo): 6 | death, serious and other significant adverse events (healthy subjects; healthy subjects, single inhaled doses 20-960 mg): No death, no serious adverse events (AE) and no other significant AE | subjects judging overall tolerability 'very good' or 'good' (healthy subjects; human, in vivo): 97.9% | total number of AEs (healthy subjects; human, in vivo): 27 | treatment-emergent adverse events (TEAEs) (healthy subjects; human, in vivo): 24
